Test system: 873145-292-R-J1-PDC complex spheroid viability
Assay: Anticancer human tumor 873145-292-R-J1-PDC patient-derived renal clear cell carcinoma cell line growth inhibition [POLQ]
Details: for IC50: curve of first compound; for viability, T/C: stronger effect = lower value
Protocol: Multicellular complex tumor spheroid response to Polymerase (POL) inhibitors (novobiocin, ART-558, RP6685) in combination with a variety of drugs and investigational agents in selected tumor cell lines
The POL inhibitors (novobiocin, ART-558, and RP6685) were evaluated both individually and in combination with standard of care and investigational anticancer small molecules within a complex spheroid model of solid tumors. . Complex spheroids include a stromal component modeled by human endothelial cells (HUVEC) and fibroblasts modeled by human mesenchymal stem cells (MSCs). The concentration ranges selected for each drug and investigational agent were based upon clinically achievable concentrations if the clinical Cmax of the agent was known.
Compounds. The drugs and investigational agents: novobiocin (NSC847541), ART-558 (NSC835418), RP-6685 (NSC848927), peposertib (NSC802822), ceralasertib (NSC780249), elimusertib (NSC800525), camonsertib (NSC841442), AZD-1390 (NSC803789), olaparib (NSC753686), talazoparib (NSC767125), rucaparib (NSC756644), sotorasib (NSC818433), MRTX-1133 (NSC836407), SN-38 (NSC673596), topotecan (NSC609699), epotoside (NSC141540), doxorubicin (NSC123127), gemcitabine (NSC613327), 5-fluorouracil (NSC19893), paclitaxel (NSC125973), vemurafenib (NSC761431), MSA-2 (NSC828583), SN-011 (NSC837082), adavosertib (NSC754352), prexasertib (NSC758257), carboplatin (NSC241240) and oxaliplatin (NSC266046), were obtained from the National Cancer Institute (NCI) Developmental Therapeutics Program Chemical Repository (21). The FDA-approved anticancer drug set is available from the Developmental Therapeutics Program at https://dtp.cancer.gov/organization/dscb/obtaining/. […] The stock solutions were prepared in dimethyl sulfoxide (DMSO, Sigma-Aldrich, St. Louis, MO, cat. D2650), except for the platinum compounds which were prepared in saline (Quality Biological, Gaithersburg, MD, cat. 114-055-101), at 800-fold the tested concentration and stored at -70 degrees C prior to their use. All drugs and investigational agents were tested over a range starting from a high concentration at or near the clinical Cmax and decreasing in half-log increments. If the clinical Cmax for an agent had not been determined, the highest concentration tested was 10 microM, except for SN-38, which was tested at a high concentration of 1 microM.
Cell Culture. All cells were maintained in an incubator at 37 degrees C and 5% CO2 with 95% humidity. The PDC lines were cultured according to standard operating procedures established by the NCI PDMR (https://pdmr.cancer.gov). Table 3 of the manuscript, lists the cell lines along with the number of the three cell types plated to form the mct-spheroids and media for tumor cell growth. After thawing, all PDC lines, except 997537-175-T-J1-PDC and 415267-285-R-J2-PDC, were cultured in Matrigel-coated flasks prepared with a working solution of 1X Ham's F-12 nutrient mix, without supplementation (Thermo Fisher Scientific, cat. 11765054), 100 U/mL penicillin-streptomycin (Thermo Fisher Scientific, cat. 15140122), and 2.5% Matrigel (Corning Inc., Corning, NY, cat. 354248) for the first three passages. The two PDC lines 997537-175-T-J1-PDC and 415267-285-R-J2-PDC were cultured on uncoated flasks. The 857933-349-R-J2-PDC line was cultured in 6C/Colon 1B media containing advanced DMEM/F-12 (Thermo Fisher Scientific, cat. 12634028), 10 mM HEPES (Thermo Fisher Scientific, cat. 15630080), 1X GlutaMAX supplement (Thermo Fisher Scientific, cat. 35050061), 0.1 mg/mL primocin (InvivoGen, San Diego, CA, cat. ant-pm-2), 10% defined fetal bovine serum, heat inactivated (HyClone Laboratories Inc., Logan, UT, cat. SH30070.03HI), 50% L-WRN conditioned media (ATCC, cat. CRL-3276), 1.25 mM N-Acetyl-L-cysteine (Sigma-Aldrich, cat. A9165), 10 mM nicotinamide (Sigma-Aldrich, cat. N0636), 1X B-27 supplement (Thermo Fisher Scientific, cat. 17504044), 1X N-2 supplement (Thermo Fisher Scientific, cat. […]

[1] = second compound 0.0316 µM, first compound 0.00316 µM
[2] = second compound 0.0316 µM, first compound 0.01 µM
[3] = second compound 0.0316 µM, first compound 0.0316 µM
[4] = second compound 0.0316 µM, first compound 0.1 µM
[5] = second compound 0.1 µM, first compound 0.00316 µM
[6] = second compound 0.1 µM, first compound 0.01 µM
[7] = second compound 0.1 µM, first compound 0.0316 µM
[8] = second compound 0.1 µM, first compound 0.1 µM
[9] = second compound 0.316 µM, first compound 0.00316 µM
[10] = second compound 0.316 µM, first compound 0.01 µM
[11] = second compound 0.316 µM, first compound 0.0316 µM
[12] = second compound 0.316 µM, first compound 0.1 µM
[13] = second compound 1 µM, first compound 0.00316 µM
[14] = second compound 1 µM, first compound 0.01 µM
[15] = second compound 1 µM, first compound 0.0316 µM
[16] = second compound 1 µM, first compound 0.1 µM
[17] = second compound 3.16 µM, first compound 0.00316 µM
[18] = second compound 3.16 µM, first compound 0.01 µM
[19] = second compound 3.16 µM, first compound 0.0316 µM
[20] = second compound 3.16 µM, first compound 0.1 µM
[21] = second compound 10 µM, first compound 0.00316 µM
[22] = second compound 10 µM, first compound 0.01 µM
[23] = second compound 10 µM, first compound 0.0316 µM
[24] = second compound 10 µM, first compound 0.1 µM
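Further: spheroids exposed to compounds for 7 days before viability readout.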
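Wherever viability, T/C is given: luminescence signal used as surrogate for viable cell content; 100% = DMSO vehicle control viability.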

Compound `CC[C@@]1(O)C(=O)OCc2c1cc1n(c2=O)Cc2cc3c(CN(C)C)c(O)ccc3nc2-1` + COC1C(OC(N)=O)C(O)C(Oc2ccc3c(O)c(NC(=O)c4ccc(O)c(CC=C(C)C)c4)c(=O)oc3c2C)OC1(C)C has an IC50 (second compound 0.0316 µM) of 0.0944 µM, an IC50 (second compound 0.1 µM) greater than 0.1 µM and an IC50 (second compound 0.316 µM) greater than 0.1 µM. For the same compound, the IC50 (second compound 1 µM) was 0.0919 µM, the IC50 (second compound 3.16 µM) was 0.0955 µM and the IC50 (second compound 10 µM) was greater than 0.1 µM. For the same compound, the viability, T/C (second compound 0.0316 µM, first compound 0.000316 µM) was 100%, the viability, T/C (second compound 0.0316 µM, first compound 0.001 µM) was 98.3% and the viability, T/C [1] was 96.2%. For the same compound, the viability, T/C [2] was 90%, the viability, T/C [3] was 91.5% and the viability, T/C [4] was 47.6%. It also gave a viability, T/C (second compound 0.1 µM, first compound 0.000316 µM) of 112%, a viability, T/C (second compound 0.1 µM, first compound 0.001 µM) of 97.6% and a viability, T/C [5] of 90.8%. It also gave a viability, T/C [6] of 96.3%, a viability, T/C [7] of 80.6% and a viability, T/C [8] of 48.9%. It also gave a viability, T/C (second compound 0.316 µM, first compound 0.000316 µM) of 104%, a viability, T/C (second compound 0.316 µM, first compound 0.001 µM) of 89.3% and a viability, T/C [9] of 92.9%. It also gave a viability, T/C [10] of 110%, a viability, T/C [11] of 81.5% and a viability, T/C [12] of 53.9%. The viability, T/C (second compound 1 µM, first compound 0.000316 µM) was 98.4%, the viability, T/C (second compound 1 µM, first compound 0.001 µM) was 95.3% and the viability, T/C [13] was 92.8%. For the same compound, the viability, T/C [14] was 91%, the viability, T/C [15] was 80.3% and the viability, T/C [16] was 47.3%. For the same compound, the viability, T/C (second compound 3.16 µM, first compound 0.000316 µM) was 101%, the viability, T/C (second compound 3.16 µM, first compound 0.001 µM) was 97.8% and the viability, T/C [17] was 92.7%. It also gave a viability, T/C [18] of 90.9%, a viability, T/C [19] of 75.1% and a viability, T/C [20] of 48.6%. For the same compound, the viability, T/C (second compound 10 µM, first compound 0.000316 µM) was 104%, the viability, T/C (second compound 10 µM, first compound 0.001 µM) was 100% and the viability, T/C [21] was 91.7%. It also gave a viability, T/C [22] of 98.6%, a viability, T/C [23] of 71.8% and a viability, T/C [24] of 50.7%.

Compound `CCc1c2c(nc3ccc(O)cc13)-c1cc3c(c(=O)n1C2)COC(=O)[C@]3(O)CC` + COC1C(OC(N)=O)C(O)C(Oc2ccc3c(O)c(NC(=O)c4ccc(O)c(CC=C(C)C)c4)c(=O)oc3c2C)OC1(C)C has an IC50 (second compound 0.0316 µM) of 0.0788 µM, an IC50 (second compound 0.1 µM) of 0.0637 µM and an IC50 (second compound 0.316 µM) of 0.0678 µM. For the same compound, the IC50 (second compound 1 µM) was 0.0504 µM, the IC50 (second compound 3.16 µM) was 0.0598 µM and the IC50 (second compound 10 µM) was 0.0829 µM. For the same compound, the viability, T/C [1] was 108%, the viability, T/C [2] was 86.7% and the viability, T/C [3] was 58.6%. The viability, T/C [4] was 47.1%, the viability, T/C (second compound 0.0316 µM, first compound 0.316 µM) was 40.6% and the viability, T/C (second compound 0.0316 µM, first compound 1 µM) was 28.6%. The viability, T/C [5] was 96.4%, the viability, T/C [6] was 92.1% and the viability, T/C [7] was 53.7%. It also gave a viability, T/C [8] of 48.4%, a viability, T/C (second compound 0.1 µM, first compound 0.316 µM) of 36.7% and a viability, T/C (second compound 0.1 µM, first compound 1 µM) of 26.9%. For the same compound, the viability, T/C [9] was 103%, the viability, T/C [10] was 83% and the viability, T/C [11] was 59.2%. The viability, T/C [12] was 43.2%, the viability, T/C (second compound 0.316 µM, first compound 0.316 µM) was 39.7% and the viability, T/C (second compound 0.316 µM, first compound 1 µM) was 28.6%. The viability, T/C [13] was 104%, the viability, T/C [14] was 87.2% and the viability, T/C [15] was 58.1%. It also gave a viability, T/C [16] of 36.6%, a viability, T/C (second compound 1 µM, first compound 0.316 µM) of 39.4% and a viability, T/C (second compound 1 µM, first compound 1 µM) of 28.7%. The viability, T/C [17] was 99.8%, the viability, T/C [18] was 77.1% and the viability, T/C [19] was 57%. For the same compound, the viability, T/C [20] was 42.2%, the viability, T/C (second compound 3.16 µM, first compound 0.316 µM) was 37.6% and the viability, T/C (second compound 3.16 µM, first compound 1 µM) was 27.2%. The viability, T/C [21] was 99.7%, the viability, T/C [22] was 75.4% and the viability, T/C [23] was 53.4%. For the same compound, the viability, T/C [24] was 55.4%, the viability, T/C (second compound 10 µM, first compound 0.316 µM) was 39.2% and the viability, T/C (second compound 10 µM, first compound 1 µM) was 26.2%.
